# Experimental data as given in patent US9133142B2, “Salts or co-crystals of 3-(3-dimethylamino-1-ethyl-2-methyl-propyl)-phenol” (Gruenenthal GmbH, priority 2010, dated 2015).
# Where a name gives a salt, the structure may show the parent alone.
# Columns and labels:
# [1] = Thermogravimetric analysis (TGA) of salts or cocrystals; assay type: physicochemical; conditions: for TGA no weight loss up to: nitrogen flow, heating rate of 10° C./min
# Method: Thermogravimetric investigations were performed with a Mettler-Toledo TGA/SDTA851.
# Unless otherwise specified, the samples were weighed in a aluminium crucible and measured in nitrogen flow. Generally TGA investigations were performed in a temperature range of 25 to about 200° C. or resp. 350° C. with a heating rate of 10° C./min.
# [2] = cited from earlier work
# [3] = biological target: recombinantly produced μ-opioid receptor (Homo sapiens, UniProt P35372); conditions: relative to morphine; cited from earlier work
# [4] = clinical studies; cited from earlier work
# Sequence of recombinantly produced μ-opioid receptor (P35372 whole entry): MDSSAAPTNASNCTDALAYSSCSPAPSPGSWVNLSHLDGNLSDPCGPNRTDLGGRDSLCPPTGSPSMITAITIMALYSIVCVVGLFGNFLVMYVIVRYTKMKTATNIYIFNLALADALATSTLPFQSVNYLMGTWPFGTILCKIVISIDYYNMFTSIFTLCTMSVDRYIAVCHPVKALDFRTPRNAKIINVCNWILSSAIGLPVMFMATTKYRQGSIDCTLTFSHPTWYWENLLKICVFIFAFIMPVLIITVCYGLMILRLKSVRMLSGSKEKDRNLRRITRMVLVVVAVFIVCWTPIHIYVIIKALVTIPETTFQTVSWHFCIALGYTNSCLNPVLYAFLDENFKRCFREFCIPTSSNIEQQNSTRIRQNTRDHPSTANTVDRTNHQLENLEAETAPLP
compound,measurement,setting,value
"CC[C@@H](c1cccc(O)c1)[C@@H](C)CN(C)C.CC[C@@H](c1cccc(O)c1)[C@@H](C)CN(C)C.O=C(O[C@H](C(=O)O)[C@H](OC(=O)c1ccccc1)C(=O)O)c1ccccc1 [Example A-1, Hemi Salt or Hemi Cocrystal of (2S,3S)-Di-benzoyl Tartaric Acid and Tapentadol]",TGA no weight loss up to,[1],to 140 °C
same,TGA no weight loss up to,[1]; listed as A-2,to 160 °C
same,TGA no weight loss up to,[1]; listed as A-3,to 160 °C
"CC[C@@H](c1cccc(O)c1)[C@@H](C)CN(C)C.O=C(O)CCCCCCCCC(=O)O [Example B-1, Salt or Cocrystal of Sebacid Acid and Tapentadol]",TGA no weight loss up to,[1],to 140 °C
same,TGA no weight loss up to,[1]; listed as B-2,to 105 °C
same,TGA no weight loss up to,[1]; listed as B-3,to 145 °C
"CC[C@@H](c1cccc(O)c1)[C@@H](C)CN(C)C.O=C(O)c1ccc2ccccc2c1O [Example C-1, Salt or Cocrystal of 1-hydroxy-2-naphthoic Acid and Tapentadol]",TGA no weight loss up to,[1],to 125 °C
same,TGA no weight loss up to,[1]; listed as C-2,to 130 °C
"CCC(c1cccc(O)c1)C(C)CN(C)C.O=C(O)CC(=O)O (centres unmarked) [Example E-1, Salt or Cocrystal of Malonic Acid and Tapentadol]",TGA no weight loss up to,[1],to 115 °C
"CC[C@@H](c1cccc(O)c1)[C@@H](C)CN(C)C [Example F-1, Salt or Cocrystal of Hydrobromic Acid and Tapentadol]",TGA no weight loss up to,[1],to 195 °C
"CC[C@@H](c1cccc(O)c1)[C@@H](C)CN(C)C.O=C(O)c1cccnc1 [Example G-1, Salt or Cocrystal of Nicotinic Acid and Tapentadol]",TGA weight loss,[1]; 28° C.-171° C.,−6.4%
"CC[C@@H](c1cccc(O)c1)[C@@H](C)CN(C)C.O=C(O)c1cccnc1 [Example G-2, Salt or Cocrystal of Nicotinic Acid and Tapentadol]",TGA no weight loss up to,[1],to 135 °C
same,TGA no weight loss up to,[1]; listed as G-3,to 150 °C
"CC[C@@H](c1cccc(O)c1)[C@@H](C)CN(C)C.CC[C@@H](c1cccc(O)c1)[C@@H](C)CN(C)C.O=C(O)/C=C/C(=O)O [Example I-1, Hemi Salt or Hemi Cocrystal of Fumaric Acid and Tapentadol]",TGA no weight loss up to,[1],to 131 °C
same,TGA no weight loss up to,[1]; listed as I-2,to 130 °C
same,TGA no weight loss up to,[1]; listed as I-3,to 130 °C
"CCC(c1cccc(O)c1)C(C)CN(C)C.O=C1NS(=O)(=O)c2ccccc21 (centres unmarked) [Example J-1, Salt or Cocrystal of Saccharin and Tapentadol]",TGA no weight loss up to,[1],to 105 °C
"CC[C@@H](c1cccc(O)c1)[C@@H](C)CN(C)C.O=C(O)c1cccnc1 [Example b2-1b, Salt or Cocrystal of Tapentadol and Nicotinic Acid]",weight loss (TGA),[1]; range: 27 to 171° C.,−5.9%
"CC[C@@H](c1cccc(O)c1)[C@@H](C)CN(C)C.O=C(O)c1cccnc1 [Example b2-1c, Salt or Cocrystal of Tapentadol and Nicotinic Acid]",TG weight change,[1]; 29.76-135.97° C.,−0.19%
same,weight loss (TGA),[1]; range: 25 to 148° C.,< 0.3%
CC[C@@H](c1cccc(O)c1)[C@@H](C)CN(C)C [hydrogen chloride salt of 3-(3-dimethylamino-1-ethyl-2-methyl-propyl)-phenol],solubility in water and aqueous media,[2],high solubility
"CC[C@@H](c1cccc(O)c1)[C@@H](C)CN(C)C [tapentadol, (1R,2R)-3-(3-dimethylamino-1-ethyl-2-methyl-propyl)-phenol]","affinity to the recombinantly produced μ-opioid receptor, times less than that of morphine",[3],18 times
same,pain-alleviating action relative to morphine,[4],two to three times less
Salt or Cocrystal of Embonic Acid and Tapentadol [Example D-1],TGA weight loss,[1]; 90° C.-157° C.,−7.1%
Salt or Cocrystal of Embonic Acid and Tapentadol [Example D-2],TGA no weight loss up to,[1],to 170 °C
same,TGA no weight loss up to,[1]; listed as D-3,to 160 °C
Salt or Cocrystal of Nitric Acid and Tapentadol [Example H-1],TGA no weight loss up to,[1],to 170 °C
Salt or Cocrystal of Tapentadol and Embonic Acid [b1-4-3],weight loss (TGA),[1]; range 31 to 171° C.,< 0.1%
Salt or Cocrystal of Tapentadol and Embonic Acid [b1-4-4],weight loss (TGA),[1]; range 53 to 167° C.,−5.7%
